According to patent US9273341B2, “Methods for treatment of bacterial infections” (THE JOHNS HOPKINS UNVIERSITY, priority 2010, dated 2016):
Converted amounts (≈) assume the structure as drawn. “Also recorded” adds a separate entry of the source.

How the values were obtained:
[1] = test system: M. tuberculosis mutant strain lacking LdtMt2 (ldtMt2::Tn); assay type: cell-based
LdtMt2 [2] = target: T1, LdtMt2 (Mycobacterium tuberculosis, UniProt O53223); assay type: binding, M. tuberculosis
T1 construct: initiator methionine from the pET2818 ATG codon (N); made in house; host or cells: E. coli BL21(DE3) harboring pREP4GroESL and pET2818 with the ldtMt2 fragment
T1 sequence (O53223 55-408): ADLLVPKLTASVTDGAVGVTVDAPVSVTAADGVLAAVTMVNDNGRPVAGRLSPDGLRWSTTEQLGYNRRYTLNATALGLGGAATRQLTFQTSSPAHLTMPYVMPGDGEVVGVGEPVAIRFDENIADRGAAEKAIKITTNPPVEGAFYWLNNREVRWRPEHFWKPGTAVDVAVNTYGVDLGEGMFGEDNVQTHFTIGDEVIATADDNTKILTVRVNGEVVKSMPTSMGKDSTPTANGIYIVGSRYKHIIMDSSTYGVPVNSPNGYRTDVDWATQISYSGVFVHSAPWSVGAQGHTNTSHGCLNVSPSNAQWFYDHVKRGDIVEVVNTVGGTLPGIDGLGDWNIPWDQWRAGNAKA

LdtMt2 [3] = target: T1, LdtMt2; assay type: biochemical, M. tuberculosis
[4] = test system: M. tuberculosis lacking LdtMt2 (ldtMt2::Tn); set-up: species or system Balb/C mice; details: mouse, in vivo

SMILES | formation of covalent adducts with LdtMt2 (LdtMt2 [2]) | concentration up to which LdtMt2 was not inhibited (LdtMt2 [3]) | further results
N[C@@H]1CON=C1O [D-cycloserine] |  |  | MIC [1]: 5 µg/mL (≈ 49 µM)
CC1(C)S[C@@H]2[C@H](NC(=O)[C@H](N)c3ccccc3)C(=O)N2[C@H]1C(=O)O [ampicillin] | Adducts were not detected; also recorded: No adduct was detected | > 5,700 μM | 
CO/N=C(\C(=O)N[C@@H]1C(=O)N2C(C(=O)O)=C(CSc3nc(=O)c(=O)[nH]n3C)CS[C@H]12)c1csc(N)n1 [ceftriaxone] | Adducts were not detected; also recorded: No adduct was detected | > 360 µM | 
C[C@@H](O)[C@H]1C(=O)N2C(C(=O)O)=C(S[C@@H]3CN[C@H](C(=O)Nc4cccc(C(=O)O)c4)C3)[C@H](C)[C@H]12 [ertapenem] | formation of covalent adducts |  | 
NNC(=O)c1ccncc1 [isoniazid] |  |  | bacterial burden (lung CFU) under treatment [4]: similarly effective
C[C@@H](O)[C@H]1C(=O)N2C(C(=O)O)=C(S[C@@H]3CN[C@H](C(=O)N(C)C)C3)[C@H](C)[C@H]12 [meropenem] | formation of covalent adducts |  | 
